Test [1] concerns the target T1, Estrogen receptor beta (Homo sapiens, UniProt Q92731).
Description: Antagonist activity at human estrogen receptor-beta by yeast two-hybrid assay in presence of SRC1
For test [2], the target named is T2, Estrogen receptor (Homo sapiens, UniProt P03372).
T2 sequence (P03372 whole entry): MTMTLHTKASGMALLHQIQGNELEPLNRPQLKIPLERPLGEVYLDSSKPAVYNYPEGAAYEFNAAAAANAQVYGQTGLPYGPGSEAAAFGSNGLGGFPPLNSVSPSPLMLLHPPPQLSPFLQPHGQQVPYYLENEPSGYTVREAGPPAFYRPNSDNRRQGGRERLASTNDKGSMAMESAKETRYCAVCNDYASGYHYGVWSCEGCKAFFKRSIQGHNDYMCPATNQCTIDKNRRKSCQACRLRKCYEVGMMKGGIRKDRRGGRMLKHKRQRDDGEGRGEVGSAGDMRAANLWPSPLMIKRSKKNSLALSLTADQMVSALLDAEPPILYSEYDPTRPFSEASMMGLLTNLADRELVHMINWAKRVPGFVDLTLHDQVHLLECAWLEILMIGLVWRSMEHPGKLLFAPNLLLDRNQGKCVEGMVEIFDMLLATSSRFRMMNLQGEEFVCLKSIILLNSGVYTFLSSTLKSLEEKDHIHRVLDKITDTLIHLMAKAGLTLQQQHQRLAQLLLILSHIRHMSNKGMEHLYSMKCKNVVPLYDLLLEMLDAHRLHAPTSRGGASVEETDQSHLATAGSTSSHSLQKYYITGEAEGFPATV
Briefly: Antagonist activity at human estrogen receptor-alpha by yeast two-hybrid assay in presence of SRC1.

The target of test [3] is T2, Estrogen receptor. Briefly: Agonist activity at human estrogen receptor-alpha by yeast two-hybrid assay in presence of SRC1.
In test [4] the target is T1, Estrogen receptor beta. The source holds these as a separate data set.
Description: Agonist activity at human estrogen receptor-beta by yeast two-hybrid assay in presence of SRC1
Test [5] concerns the target T3, Estrogen receptor (Homo sapiens) (UniProt P03372).
T3 sequence (whole entry): T2 sequence (P03372 whole entry)
Briefly: Antagonist activity at human estrogen receptor-alpha at 25 uM by yeast two-hybrid assay in presence of SRC1.

The next test is filed under the species Homo sapiens. Briefly: Selectivity ratio of EC50 for human estrogen receptor-alpha to EC50 for human estrogen receptor-beta.

SMILES strings stand for the structures. pEC50: −log10 of the molar value. Calls of active or inactive are those of the source. No cut-off for these calls is given here.

T1 sequence (Q92731 whole entry): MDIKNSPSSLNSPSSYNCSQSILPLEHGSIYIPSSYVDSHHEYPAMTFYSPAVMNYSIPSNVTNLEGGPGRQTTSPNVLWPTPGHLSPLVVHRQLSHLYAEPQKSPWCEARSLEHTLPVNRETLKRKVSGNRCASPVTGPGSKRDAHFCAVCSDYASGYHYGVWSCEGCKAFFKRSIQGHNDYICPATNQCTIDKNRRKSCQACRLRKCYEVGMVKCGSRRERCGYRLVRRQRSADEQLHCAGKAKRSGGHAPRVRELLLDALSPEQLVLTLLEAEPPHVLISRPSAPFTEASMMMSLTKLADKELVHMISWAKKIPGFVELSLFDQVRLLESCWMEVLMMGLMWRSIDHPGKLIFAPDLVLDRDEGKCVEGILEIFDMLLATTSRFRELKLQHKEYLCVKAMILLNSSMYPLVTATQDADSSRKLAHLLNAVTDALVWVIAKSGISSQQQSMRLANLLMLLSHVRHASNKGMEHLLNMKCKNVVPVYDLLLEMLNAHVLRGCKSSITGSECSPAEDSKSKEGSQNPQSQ

Consider `C=C(C)[C@@H]1[C@@H]2O[C@@H]2[C@@H]2[C@]3(CC[C@]4(C)[C@@H]([C@H](C)CC/C=C(\C)C(=O)O)CC[C@@]24C)C[C@]13CCC(=O)O`, for which the pEC50 (usually the EC50 on a negative log10 scale, so that one unit is a factor of ten) on Estrogen receptor beta [1] was 5.33; on Estrogen receptor [2], 5.59.
Taken in the same sequence, the figures for `CC(C)(O)c1ccc2c(c1)C(=O)C[C@H]1[C@@](C)(C(=O)O)CCC[C@]21C` were 5.37 and 5.09.
`O=C(O)/C=C/c1ccc(O)cc1` [COUMARIC ACID]: the figures for the negative logarithm of the EC50 (pEC50) on Estrogen receptor [3] and on Estrogen receptor beta [4] were 4.79 and 5.31, respectively.
As to `C=C(C)[C@@H]1[C@H](O)C[C@@H]2C(=CC[C@]3(C)[C@@H]([C@H](C)CC/C=C(\C)C(=O)OC)CC[C@@]23C)[C@@]1(C)CCC(=O)O`, the outcome in test [5] was inactive. Further, the pEC50 at Estrogen receptor beta [1] is 4.14.
In the case of `C=CCc1ccc(OC)c(-c2cc(C=O)cc(O)c2O)c1`, the pEC50 at Estrogen receptor beta [1] is 4.31; at Estrogen receptor [2], 4.32.
As to `C=C(C)[C@@H]1[C@H](O)C[C@@H]2C(=CC[C@]3(C)[C@@H]([C@H](C)CC/C=C(\C)C(=O)O)CC[C@@]23C)[C@@]1(C)CCC(=O)O`, the outcome in test [5] was inactive. For the same molecule, at Estrogen receptor beta [1], the negative logarithm of the EC50 (pEC50) is 4.60.
In the case of `CCOC(=O)c1ccc(O)cc1` [ETHYLPARABEN], the Ratio EC50 in the test filed under Homo sapiens amounted to 20. Also, the negative logarithm of the EC50 (pEC50) was 4.42 on Estrogen receptor [3] and 5.73 on Estrogen receptor beta [4].
With `C=C(C)[C@@H]1[C@H](O)C[C@@H]2[C@]3(CC[C@]4(C)[C@@H]([C@H](C)CC/C=C(\C)C(=O)O)CC[C@@]24C)C[C@]13CCC(=O)O`, the outcome in test [5] was inactive. This molecule showed a negative logarithm of the EC50 (pEC50) at Estrogen receptor beta [1] of 4.47.
In the case of `O=C(Cc1ccc(O)cc1)c1ccc(O)cc1O`, the pEC50 was 5.69 at Estrogen receptor [3] and 6.30 on Estrogen receptor beta [4].
Regarding `C/C(=C/C(=O)C[C@@H](C)[C@]1(C)CC[C@@]2(C)C3=CCC4C(C)(C)C(=O)CC[C@]4(C)[C@@H]3CCC21)C(=O)O` (stereo partly drawn), the pEC50 is 5.56 at Estrogen receptor beta [1] and 5.08 on Estrogen receptor [2].
The like results for `C/C(=C/C(=O)C[C@@H](C)[C@]1(C)CC[C@@]2(C)C3=CCC4C(C)(C)[C@H](O)CC[C@]4(C)[C@@H]3CC=C21)C(=O)O` (stereo partly drawn) were, in that order, 4.75 and 4.90.

Values taken from ChEMBL document CHEMBL2380210, “Discovery of natural estrogen receptor modulators with structure-based virtual screening” (Bioorg Med Chem Lett, 2013).
